pIC50: −log10 of the molar value. Like-named read-outs stand apart in the source and are kept apart here.
What was measured:
[1] = molecular target: full-length human PLD2 (Homo sapiens (Human), UniProt O14939); assay: Evaluation of human PLD2 enzyme inhibitory activity (Amplex Red / choline oxidase fluorescence); format: biochemical
Procedure, shortened: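 Released choline was read by Amplex Red fluorescence coupled to choline oxidase and HRP after a 60 min room-temperature reaction. Substrate was diheptanoyl phosphatidylcholine, added as a 6 mmol/L solution, and enzyme was FLAG-tagged full-length human PLD2 from Expi293F, added as a 6 nmol/L solution. Buffer was 50 mM HEPES pH 7.5 with 5% final DMSO.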

[2] = molecular target: full-length human PLD1 (Homo sapiens (Human), UniProt Q13393); assay: Evaluation of human PLD1 enzyme inhibitory activity (Amplex Red / choline oxidase fluorescence); format: biochemical
full-length human PLD1, sequence (Q13393 other isoform, or with tags, fused parts or gaps): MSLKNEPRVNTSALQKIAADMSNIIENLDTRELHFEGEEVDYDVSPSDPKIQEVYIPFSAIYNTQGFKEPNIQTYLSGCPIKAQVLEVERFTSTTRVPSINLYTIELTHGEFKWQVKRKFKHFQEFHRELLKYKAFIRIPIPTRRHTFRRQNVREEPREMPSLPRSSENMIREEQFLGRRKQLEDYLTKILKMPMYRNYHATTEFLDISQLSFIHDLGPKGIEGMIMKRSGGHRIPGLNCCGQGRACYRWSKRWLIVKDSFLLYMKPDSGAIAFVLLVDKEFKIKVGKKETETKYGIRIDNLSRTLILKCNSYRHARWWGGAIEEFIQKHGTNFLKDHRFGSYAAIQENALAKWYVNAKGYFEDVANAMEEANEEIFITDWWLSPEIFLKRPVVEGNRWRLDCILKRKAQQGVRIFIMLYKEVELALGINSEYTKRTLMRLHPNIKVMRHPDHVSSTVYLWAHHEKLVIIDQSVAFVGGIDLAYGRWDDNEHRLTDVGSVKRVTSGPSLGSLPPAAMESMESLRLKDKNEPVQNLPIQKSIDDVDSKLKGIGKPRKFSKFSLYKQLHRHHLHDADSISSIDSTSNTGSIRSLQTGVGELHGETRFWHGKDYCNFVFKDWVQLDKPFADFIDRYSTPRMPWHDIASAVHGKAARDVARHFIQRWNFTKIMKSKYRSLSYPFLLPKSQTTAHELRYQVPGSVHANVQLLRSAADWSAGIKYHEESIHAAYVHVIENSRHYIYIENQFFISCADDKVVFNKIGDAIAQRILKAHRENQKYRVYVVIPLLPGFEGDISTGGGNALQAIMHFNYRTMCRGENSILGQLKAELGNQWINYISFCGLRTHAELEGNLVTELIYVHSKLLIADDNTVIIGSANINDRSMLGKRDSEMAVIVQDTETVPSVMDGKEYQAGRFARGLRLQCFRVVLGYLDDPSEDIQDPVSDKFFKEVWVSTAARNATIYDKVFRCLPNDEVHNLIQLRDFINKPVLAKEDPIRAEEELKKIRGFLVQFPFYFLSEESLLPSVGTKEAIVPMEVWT
Procedure, shortened: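 Fluorescence read-out couples choline to Amplex Red via choline oxidase and peroxidase after a 60 min room-temperature reaction. Enzyme: FLAG-tagged full-length human PLD1 from Expi293F cells, anti-FLAG purified; substrate diheptanoyl phosphatidylcholine; HEPES pH 7.5 assay buffer with 0.01% NP-40, 0.1% BSA, 5% DMSO final.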

[3] = full-length human PLD2 enzyme, read-out: PLD2 IC50
[4] = full-length human PLD1 enzyme, read-out: PLD1 IC50

full-length human PLD2, sequence (O14939 whole entry): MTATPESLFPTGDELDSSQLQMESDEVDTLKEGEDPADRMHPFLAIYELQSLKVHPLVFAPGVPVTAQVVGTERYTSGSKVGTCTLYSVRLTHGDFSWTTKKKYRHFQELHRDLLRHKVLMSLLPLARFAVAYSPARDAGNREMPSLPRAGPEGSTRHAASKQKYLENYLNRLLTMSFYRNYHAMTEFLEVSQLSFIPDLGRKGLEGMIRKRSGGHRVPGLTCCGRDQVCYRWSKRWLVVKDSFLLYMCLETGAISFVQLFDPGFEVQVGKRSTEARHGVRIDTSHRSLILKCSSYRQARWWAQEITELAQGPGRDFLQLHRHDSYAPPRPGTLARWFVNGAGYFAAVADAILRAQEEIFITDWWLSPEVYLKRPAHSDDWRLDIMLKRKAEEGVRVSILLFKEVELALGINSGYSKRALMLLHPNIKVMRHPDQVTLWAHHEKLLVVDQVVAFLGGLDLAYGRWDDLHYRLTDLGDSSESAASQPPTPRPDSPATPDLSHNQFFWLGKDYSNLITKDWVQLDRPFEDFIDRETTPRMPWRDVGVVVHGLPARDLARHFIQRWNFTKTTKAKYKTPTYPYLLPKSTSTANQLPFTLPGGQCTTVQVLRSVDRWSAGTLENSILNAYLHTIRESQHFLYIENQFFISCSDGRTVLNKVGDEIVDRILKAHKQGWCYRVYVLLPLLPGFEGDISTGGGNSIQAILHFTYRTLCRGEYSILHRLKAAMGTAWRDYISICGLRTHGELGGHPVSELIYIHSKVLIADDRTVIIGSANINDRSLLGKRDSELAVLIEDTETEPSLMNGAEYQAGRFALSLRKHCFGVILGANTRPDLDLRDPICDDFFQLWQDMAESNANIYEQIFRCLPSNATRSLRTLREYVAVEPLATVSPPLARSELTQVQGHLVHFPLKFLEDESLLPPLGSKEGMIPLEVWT

Compound | pIC50 [1, 3] | pIC50 [2, 4] | also measured
COc1cc(C)c(C2=NNC(=O)O[C@]23CC[C@@H](C[C@H](C)NC(=O)N2CCn4c(nnc4C(F)(F)F)C2)CC3)cn1 [Example 259] | 5.60 | 5.84 | –
CNC(=O)C(=O)N[C@@H](C)C[C@H]1CC[C@]2(CC1)OC(=O)NN=C2c1cccnc1C [Example 102] | 6.18 | 6.54 | –
C[C@@H](CN1CCC2(CC1)OC(=O)NN=C2c1ccc(C#N)cc1Br)NC(=O)c1cc(Cl)no1 [Example 2-061] | > 8.00 | 7.85 | –
Cc1cc(C(=O)N[C@@H](C)C[C@]2(O)CC[C@@]3(CC2)OC(=O)NN=C3c2ccc(F)cc2Br)[nH]n1 [Example 322, N—((S)-1-(trans-5-(2-bromo-4-fluorophenyl)-9-hydroxy-2-oxo-1-oxa-3,4-diazaspiro[5,5]undec-4-en-9-yl)propan-2-yl)-3-methyl-1H-pyrazole-5-carboxamide] | > 8.00 | 7.52 | –
Cc1cc(C(=O)N[C@@H](C)C[C@H]2CC[C@]3(CC2)OC(=O)NN=C3c2ccc(Br)cc2)[nH]n1 [Example 22] | 7.31 | 7.18 | –
Cc1cc(C(=O)N[C@@H](C)C[C@H]2CC[C@]3(CC2)OC(=O)NN=C3c2cnc(Cl)cc2N2CCC(F)(F)C2)[nH]n1 [Example 223] | 6.61 | 6.40 | –
C[C@@H](C[C@]1(C#N)CC[C@@]2(CC1)OC(=O)NN=C2c1cc(OCC(F)F)ncc1Br)NC(=O)C(=O)NC1CC1 [Example 2-101] | – | – | inhibition at 10 µM ([1]; read-out: human PLD2 % inhibition at 10 μM): 28%; inhibition at 10 µM ([1]; read-out: inhibition rate of PLD2 at 10 μM compound): 28%; inhibition at 10 µM ([2]; read-out: human PLD1 % inhibition at 10 μM): 13%; inhibition at 10 µM ([2]; read-out: inhibition rate of PLD1 at 10 μM compound): 13%
CCCC(=O)N[C@@H](C)C[C@H]1CC[C@]2(CC1)OC(=O)NN=C2c1ccc(F)cc1Br [Example 42] | 6.58 | 6.61 | –
Cc1cc(C(=O)N[C@@H](C)C[C@H]2CC[C@]3(CC2)OC(=O)NN=C3c2cccc(Br)c2)[nH]n1 [Example 25] | 7.00 | 6.97 | –
[2H]C([2H])([2H])NC(=O)C(=O)N[C@@H](C)C[C@]1(C#N)CC[C@@]2(CC1)OC(=O)NN=C2c1cc(OC(F)F)ccc1Br [Example 2-113] | – | – | pIC50 ([1]; column 2 of continuation tables 2-12 to 2-14, read-out: human PLD2 enzyme inhibitory activity IC50): > 8.00; pIC50 ([2]; column 1 of continuation tables 2-12 to 2-14, read-out: human PLD1 enzyme inhibitory activity IC50): 7.85
COc1cc(C(=O)N[C@@H](C)C[C@H]2CC[C@]3(CC2)OC(=O)NN=C3c2ccc(F)cc2Br)on1 [Example 69] | > 8.00 | > 8.00 | –
Cc1cc(C(=O)N[C@@H](C)CC2CC[C@]3(C[C@@H]2F)OC(=O)NN=C3c2ccc(F)cc2Br)[nH]n1 (stereo partly shown) [Example 286] | > 8.00 | 7.85 | –
C[C@@H](CN1CCC2(CC1)OC(=O)NN=C2c1ccc(F)cc1Br)NC(=O)c1cc2cc(F)ccc2[nH]1 [Example 2] | > 8.00 | 7.70 | –
Cc1cc(C(=O)N[C@@H](C)CN2CCC3(CC2)OC(=O)NN=C3c2cccc(C(F)(F)F)c2Br)[nH]n1 [Example 2-052] | > 8.00 | 7.68 | –
CBC(=O)C(=O)N[C@@H](C)C[C@H]1CC[C@]2(CC1)OC(=O)NN=C2c1ccc(S(C)(=O)=O)cc1Cl [Example 51] | 7.80 | 7.48 | –
C[C@@H](C[C@H]1CC[C@]2(CC1)OC(=O)NN=C2c1cc(C#N)ccc1Br)NC(=O)c1cnn(C)c1 [Example 325] | > 8.00 | 7.82 | –
C[C@@H](CN1CCC2(CC1)OC(=O)NN=C2c1ccc(F)cc1Cl)NC(=O)c1cc(Cl)no1 [Example 92] | 7.89 | 7.59 | –
Cc1cc(F)ccc1C1=NNC(=O)O[C@]12CC[C@@H](C[C@H](C)NC(=O)c1ccc(Cl)cn1)CC2 [Example 89] | 7.43 | 7.42 | –
CNC(=O)C(=O)N[C@@H](C)C[C@H]1CC[C@]2(CC1)OC(=O)NN=C2c1cc(C(=O)NC(C)(C)C)ccc1Br [Example 299] | > 8.00 | 7.60 | –
C[C@@H](C[C@H]1CC[C@]2(CC1)OC(=O)NN=C2c1ccc(OCC(C)(C)O)cc1Br)NC(=O)c1cc2ccccc2o1 [Example 132] | > 8.00 | 7.85 | –
C[C@@H](CN1CCC2(CC1)OC(=O)N(C(=O)NC1CC1)N=C2c1ccc(F)cc1Br)NC(=O)NC1CC1 [Example 190] | 6.11 | 6.19 | –
CNC(=O)C(=O)N[C@@H](C)C[C@H]1CC[C@]2(CC1)OC(=O)NN=C2c1ccc(OCC(F)F)cc1Br [Example 85] | > 8.00 | 7.92 | –
Cc1cc(C(=O)N[C@@H](C)CN2CC[C@]3(C[C@@H]2C)OC(=O)NN=C3c2ccc(C#N)cc2Cl)[nH]n1 [Example 281] | 6.63 | 6.77 | –
Cc1cc(F)ccc1C1=NNC(=O)O[C@]12CC[C@@H](C[C@H](C)NC(=O)N1CC3CCCCC3C1)CC2 (mixture of isomers) [Example 150] | 6.19 | 6.06 | –
COc1cc(C)c(C2=NNC(=O)O[C@]23CC[C@@H](C[C@H](C)NC(=O)N2CCc4nocc4C2)CC3)cn1 [Example 260] | > 8.00 | 7.51 | –

Compound | pIC50 [1, 3] | pIC50 [2, 4] | also measured
CNC(=O)C(=O)N[C@@H](C)C[C@H]1CC[C@]2(CC1)OC(=O)NN=C2c1ccc(C(F)(F)F)cc1C [Example 181] | > 8.00 | 7.89 | –
CNC(=O)C(=O)N[C@@H](C)C[C@H]1CC[C@]2(CC1)OC(=O)NN=C2c1nccn1CC1CC1 [Example 82] | 6.45 | 6.38 | –
CNC(=O)C(=O)N[C@@H](C)C[C@H]1CC[C@]2(CC1)OC(=O)NN=C2c1ncccc1C [Example 147] | 7.49 | 7.49 | –
C[C@@H](C[C@H]1CC[C@]2(CC1)OC(=O)NN=C2c1ccc(F)cc1Br)NC(=O)C1CC1c1ccccc1 (single isomer, unassigned) [Example 38] | 7.06 | 7.46 | –
CNC(=O)C(=O)N[C@@H](C)C[C@H]1CC[C@]2(CC1)OC(=O)NN=C2c1cc(C(=O)NC)ccc1Br [Example 2-035] | > 8.00 | 7.68 | –
Cc1cc(C(=O)N[C@@H](C)CN2CCC3(CC2)OC(=O)NN=C3c2cc(C#N)ccc2Br)[nH]n1 [Example 301] | > 8.00 | 7.52 | –
C[C@@H](C[C@H]1CC[C@]2(CC1)OC(=O)NN=C2c1ccc(F)cc1I)NC(=O)NC1CC1 [Example 245] | 6.97 | 7.40 | –
C[C@@H](C[C@H]1CC[C@]2(CC1)OC(=O)NN=C2c1ccc(F)cc1Br)NC(=O)c1cnn(C)c1 [Example 219] | > 8.00 | > 8.00 | –
CNC(=O)C(=O)N[C@@H](C)CN1CCC2(CC1)OC(=O)NN=C2c1ccc(C#N)cc1C(F)(F)F [Example 327] | 7.29 | 6.96 | –
CNC(=O)C(=O)N[C@@H](C)C[C@H]1CC[C@]2(CC1)OC(=O)NN=C2c1cnc(C)cc1Cl [Example 230, N^1—((S)-1-(cis-5-(4-chloro-6-methylpyridin-3-yl)-2-oxo-1-oxa-3,4-diazaspiro[5.5]undec-4-en-9-yl)propan-2-yl)-N^2-methyloxamide] | > 8.00 | 7.68 | –
C[C@@H](CN1CCC2(CC1)OC(=O)NN=C2c1ccc(F)cc1Br)NC(=O)N1CCC2(CC2)C1 [Example 284] | 7.40 | 7.21 | –
CNC(=O)C(=O)N[C@@H](C)C[C@H]1CC[C@]2(CC1)OC(=O)NN=C2c1cc(OC(F)F)ccc1Br [Example 184] | > 8.00 | > 8.00 | –
C[C@@H](CC1CCC2(CC1)OC(=O)NN=C2c1ccncc1Br)NC(=O)c1cc2ccccc2o1 (mixture of isomers) [Example 122] | > 8.00 | > 8.00 | –
[2H]C([2H])([C@H](C)NC(=O)c1cnn(C)c1)N1CCC2(CC1)OC(=O)NN=C2c1ccc(F)cc1Br [Example 334] | > 8.00 | 7.59 | –
CNC(=O)C(=O)N[C@@H](C)C[C@H]1CC[C@]2(CC1)OC(=O)NN=C2c1cnc(C)cc1C [Example 173] | 8.00 | 7.54 | –
C[C@@H](C[C@H]1CC[C@]2(CC1)OC(=O)NN=C2c1cccc(OC(F)F)c1Br)NC(=O)C(=O)NC1CC1 [Example 308] | > 8.00 | 7.82 | –
Cc1cccnc1C1=NNC(=O)O[C@]12CC[C@@H](C[C@H](C)NC(=O)c1cc3ccccc3o1)CC2 [Example 149] | > 8.00 | 7.92 | –
CNC(=O)C(=O)N[C@@H](C)C[C@H]1CC[C@]2(CC1)OC(=O)NN=C2c1cc(C(=O)N2CC(F)(F)C2)ccc1Br [Example 2-057] | > 8.00 | 7.74 | –
Cc1cc(N2CCOCC2)ccc1C1=NNC(=O)O[C@]12CC[C@@H](C[C@H](C)NC(=O)NC1CC1)CC2 [Example 229] | 6.51 | 6.71 | –
Cc1cc(C(=O)N[C@@H](C)[C@@H](C)N2CCC3(CC2)OC(=O)NN=C3c2ccc(F)cc2Br)[nH]n1 [Example 290] | 7.34 | 6.91 | –
COc1cc(C)c(C2=NNC(=O)O[C@]23CC[C@@H](C[C@H](C)NC(=O)N2CCn4ncnc4C2)CC3)cn1 [Example 257] | 6.67 | 6.58 | –
[2H]C([2H])([2H])NC(=O)C(=O)N[C@@H](C)CN1CCC2(CC1)OC(=O)NN=C2c1cc(C#N)c(F)cc1Br [Example 2-004] | > 8.00 | 7.17 | –
CNC(=O)/C=C\C(=O)N[C@@H](C)CN1CCC2(CC1)OC(=O)NN=C2c1cc(C#N)ccc1Br [Example 2-063] | 6.97 | 6.76 | –
Cc1cc(F)ccc1C1=NNC(=O)O[C@]12CC[C@@H](C[C@H](C)NC(=O)N1CCc3ccccc3C1)CC2 [Example 155] | > 8.00 | 7.85 | –

Source: patent US20240101572A1, “DIHYDROOXADIAZINONE COMPOUND AND PHARMACEUTICAL USE THEREOF” (Japan Tobacco Inc., priority 2022, published 2024)
